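These data come from cells grown in 96-well plates and exposed to compound for 48 hours at five concentrations. TGI: concentration producing complete growth inhibition.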
Each compound was assayed on SK-MEL-5 melanoma (assay: NCI-60 cell line screen, 48 h).

SMILES | TGI [µM]
C1=C(CC2=C[P+](c3ccccc3)(c3ccccc3)C=C(c3ccccc3)O2)OC(c2ccccc2)=C[P+]1(c1ccccc1)c1ccccc1 | 0.964
OC1=C2c3ccccc3NC2Oc2cc(F)ccc21 (configuration not stated) | 28.2
NCC(Cl)C(O)c1cnc(N)[nH]1 (configuration not stated) | 47.6

What follows are compounds tested on SNB-19 CNS (assay: NCI-60 cell line screen, 48 h).

SMILES | TGI [µM]
CCOc1cccc(C=Nc2ccccc2SSc2ccccc2N=Cc2cccc(OCC)c2O)c1O | 47.4
Cc1c2c(cc3c1C(=O)C(=O)C([C@@H](C)CO)=C3O)C(C)(C)CCC2 | 23.3
CC[C@@]1(O)C(=O)OCc2c1cc1n(c2=O)Cc2c-1nc1ccccc1c2/C=N\NC(=O)C[n+]1ccccc1 | 19.1
Cc1[nH]c(=O)[nH]c(=O)c1/C=C/C(=O)NC(CO)CC(C)C (configuration not stated) | > 375
COc1ccc(CC2Cc3ccccc3CCN2)cc1OC (configuration not stated) | > 50
CN(C)CCn1c(=O)c2ccc(NCCNCCO)c3c(=O)c4ccccc4n(c1=O)c23 | 3.98
CN(CCC(=O)N1CC(CCl)c2ccc([N+](=O)[O-])cc21)CCC(=O)N1CC(CCl)c2ccc([N+](=O)[O-])cc21 (configuration not stated) | > 100
O=C1Cc2c([nH]c3ccc(Br)cc23)-c2cc(Br)ccc2N1 | > 100
O=C1CC(Br)c2c(Br)sc(Br)c21 (configuration not stated) | 76.2
[O-][n+]1nc(N2CCOCC2)nc2ccccc21 | > 100
COc1ccc(NC(=S)Nc2cc(C)ccn2)cc1 | > 100
NCc1ccc(-c2ccc(CN)s2)s1 | > 100
Cc1cccc(N/C(=C(/C(Cl)=C(Cl)Cl)[N+](=O)[O-])n2nnc3ccccc32)c1 | 34.3
CCC1CN2CCc3cc(OC)c(OC)cc3C2CC1CC1c2cc(OC)c(OC)cc2CCN1C(=O)C(N)Cc1ccccc1 (configuration not stated) | 6.98
CC(=O)OC1C=C(C=O)C(O)(C=O)C2(C)CCCC(C)(C)C12 (configuration not stated) | 12
C1C2CC3CC1CC(c1nn4c(C56CC7CC(CC(C7)C5)C6)nnc4s1)(C2)C3 | > 100
Cc1cn(C2OC(CO[Si](C)(C)C(C)(C)C)/C(=C\C#N)C2O[Si](C)(C)C(C)(C)C)c(=O)[nH]c1=O (configuration not stated) | > 100
COc1cc2c(/C=C3/C(=O)Nc4ccc(O)cc43)c(Cl)n(Cc3ccccc3)c2cc1C | 18.3
O=[N+]([O-])/C(C(Cl)=C(Cl)Cl)=C1\Nc2ccc([N+](=O)[O-])cc2N1 | > 100
CC(C)=CCc1c(O)cc(O)c2c1OC(c1ccc(O)cc1)C(O)C2=O (configuration not stated) | > 100
Cc1ccc(-c2c(C#N)c(-c3ccccc3)n(NS(=O)(=O)c3ccc(C)cc3)c(=O)c2C#N)cc1 | > 100
CC(C)CCCC(C)[C@H]1CC[C@H]2n3c(nnc3-c3ccccc3)CCC[C@]12C (some centres not stated) | 28.2
CCCCCCCCCCCCCCCCP(=O)(O)OCC(N)C(=O)O (configuration not stated) | 44.8
C1=C(CC2=C[P+](c3ccccc3)(c3ccccc3)C=C(c3ccccc3)O2)OC(c2ccccc2)=C[P+]1(c1ccccc1)c1ccccc1 | 1.25
OC1=C2c3ccccc3NC2Oc2cc(F)ccc21 (configuration not stated) | 44.6
NCC(Cl)C(O)c1cnc(N)[nH]1 (configuration not stated) | 19.3

These compounds were tested on SW-620 colon (assay: NCI-60 cell line screen, 48 h).

SMILES | TGI [µM]
CCOc1cccc(C=Nc2ccccc2SSc2ccccc2N=Cc2cccc(OCC)c2O)c1O | 23.1
Cc1c2c(cc3c1C(=O)C(=O)C([C@@H](C)CO)=C3O)C(C)(C)CCC2 | > 100
CC[C@@]1(O)C(=O)OCc2c1cc1n(c2=O)Cc2c-1nc1ccccc1c2/C=N\NC(=O)C[n+]1ccccc1 | > 100
Cc1[nH]c(=O)[nH]c(=O)c1/C=C/C(=O)NC(CO)CC(C)C (configuration not stated) | > 375
COc1ccc(CC2Cc3ccccc3CCN2)cc1OC (configuration not stated) | > 50
CN(C)CCn1c(=O)c2ccc(NCCNCCO)c3c(=O)c4ccccc4n(c1=O)c23 | > 30.7
CN(CCC(=O)N1CC(CCl)c2ccc([N+](=O)[O-])cc21)CCC(=O)N1CC(CCl)c2ccc([N+](=O)[O-])cc21 (configuration not stated) | 29
O=C1Cc2c([nH]c3ccc(Br)cc23)-c2cc(Br)ccc2N1 | > 100
O=C1CC(Br)c2c(Br)sc(Br)c21 (configuration not stated) | 26.5
[O-][n+]1nc(N2CCOCC2)nc2ccccc21 | > 100
COc1ccc(NC(=S)Nc2cc(C)ccn2)cc1 | > 100
N=C1C(=N)c2ccccc2-c2ccccc21.[Cl-].[Ru+2].c1cnc2c(c1)ccc1cccnc12.c1cnc2c(c1)ccc1cccnc12 | 41.4
NCc1ccc(-c2ccc(CN)s2)s1 | > 100
Cc1cccc(N/C(=C(/C(Cl)=C(Cl)Cl)[N+](=O)[O-])n2nnc3ccccc32)c1 | 29.2
CCC1CN2CCc3cc(OC)c(OC)cc3C2CC1CC1c2cc(OC)c(OC)cc2CCN1C(=O)C(N)Cc1ccccc1 (configuration not stated) | 10.9
CC(=O)OC1C=C(C=O)C(O)(C=O)C2(C)CCCC(C)(C)C12 (configuration not stated) | 0.953
C1C2CC3CC1CC(c1nn4c(C56CC7CC(CC(C7)C5)C6)nnc4s1)(C2)C3 | > 100
Cc1cn(C2OC(CO[Si](C)(C)C(C)(C)C)/C(=C\C#N)C2O[Si](C)(C)C(C)(C)C)c(=O)[nH]c1=O (configuration not stated) | > 100
COc1cc2c(/C=C3/C(=O)Nc4ccc(O)cc43)c(Cl)n(Cc3ccccc3)c2cc1C | 19.9
CC(C)=CCc1c(O)cc(O)c2c1OC(c1ccc(O)cc1)C(O)C2=O (configuration not stated) | > 100
Cc1ccc(-c2c(C#N)c(-c3ccccc3)n(NS(=O)(=O)c3ccc(C)cc3)c(=O)c2C#N)cc1 | > 100
CC(C)CCCC(C)[C@H]1CC[C@H]2n3c(nnc3-c3ccccc3)CCC[C@]12C (some centres not stated) | 47.5
CCCCCCCCCCCCCCCCP(=O)(O)OCC(N)C(=O)O (configuration not stated) | > 100
C1=C(CC2=C[P+](c3ccccc3)(c3ccccc3)C=C(c3ccccc3)O2)OC(c2ccccc2)=C[P+]1(c1ccccc1)c1ccccc1 | 1.42
OC1=C2c3ccccc3NC2Oc2cc(F)ccc21 (configuration not stated) | 47.9
NCC(Cl)C(O)c1cnc(N)[nH]1 (configuration not stated) | 3.89

Each compound was assayed on OVCAR-5 ovarian (assay: NCI-60 cell line screen, 48 h).

SMILES | TGI [µM]
CCOc1cccc(C=Nc2ccccc2SSc2ccccc2N=Cc2cccc(OCC)c2O)c1O | 14.6
Cc1c2c(cc3c1C(=O)C(=O)C([C@@H](C)CO)=C3O)C(C)(C)CCC2 | > 100
CC[C@@]1(O)C(=O)OCc2c1cc1n(c2=O)Cc2c-1nc1ccccc1c2/C=N\NC(=O)C[n+]1ccccc1 | > 65.7
Cc1[nH]c(=O)[nH]c(=O)c1/C=C/C(=O)NC(CO)CC(C)C (configuration not stated) | > 375
COc1ccc(CC2Cc3ccccc3CCN2)cc1OC (configuration not stated) | > 50
CN(C)CCn1c(=O)c2ccc(NCCNCCO)c3c(=O)c4ccccc4n(c1=O)c23 | 5.19
CN(CCC(=O)N1CC(CCl)c2ccc([N+](=O)[O-])cc21)CCC(=O)N1CC(CCl)c2ccc([N+](=O)[O-])cc21 (configuration not stated) | > 100
O=C1Cc2c([nH]c3ccc(Br)cc23)-c2cc(Br)ccc2N1 | > 100
O=C1CC(Br)c2c(Br)sc(Br)c21 (configuration not stated) | 31.9
[O-][n+]1nc(N2CCOCC2)nc2ccccc21 | > 100
N=C1C(=N)c2ccccc2-c2ccccc21.[Cl-].[Ru+2].c1cnc2c(c1)ccc1cccnc12.c1cnc2c(c1)ccc1cccnc12 | > 100
NCc1ccc(-c2ccc(CN)s2)s1 | > 100
Cc1cccc(N/C(=C(/C(Cl)=C(Cl)Cl)[N+](=O)[O-])n2nnc3ccccc32)c1 | 38
CCC1CN2CCc3cc(OC)c(OC)cc3C2CC1CC1c2cc(OC)c(OC)cc2CCN1C(=O)C(N)Cc1ccccc1 (configuration not stated) | 9.55
CC(=O)OC1C=C(C=O)C(O)(C=O)C2(C)CCCC(C)(C)C12 (configuration not stated) | 8.16
C1C2CC3CC1CC(c1nn4c(C56CC7CC(CC(C7)C5)C6)nnc4s1)(C2)C3 | > 100
Cc1cn(C2OC(CO[Si](C)(C)C(C)(C)C)/C(=C\C#N)C2O[Si](C)(C)C(C)(C)C)c(=O)[nH]c1=O (configuration not stated) | > 100
COc1cc2c(/C=C3/C(=O)Nc4ccc(O)cc43)c(Cl)n(Cc3ccccc3)c2cc1C | 14.5
O=[N+]([O-])/C(C(Cl)=C(Cl)Cl)=C1\Nc2ccc([N+](=O)[O-])cc2N1 | > 100
CC(C)=CCc1c(O)cc(O)c2c1OC(c1ccc(O)cc1)C(O)C2=O (configuration not stated) | 61.1
Cc1ccc(-c2c(C#N)c(-c3ccccc3)n(NS(=O)(=O)c3ccc(C)cc3)c(=O)c2C#N)cc1 | > 100
CCCCCCCCCCCCCCCCP(=O)(O)OCC(N)C(=O)O (configuration not stated) | 65.1
C1=C(CC2=C[P+](c3ccccc3)(c3ccccc3)C=C(c3ccccc3)O2)OC(c2ccccc2)=C[P+]1(c1ccccc1)c1ccccc1 | 2.39
OC1=C2c3ccccc3NC2Oc2cc(F)ccc21 (configuration not stated) | 38.2
NCC(Cl)C(O)c1cnc(N)[nH]1 (configuration not stated) | 20.6

What follows are compounds tested on NCI-H522 lung (assay: NCI-60 cell line screen, 48 h).

SMILES | TGI [µM]
CCOc1cccc(C=Nc2ccccc2SSc2ccccc2N=Cc2cccc(OCC)c2O)c1O | 10.4
Cc1c2c(cc3c1C(=O)C(=O)C([C@@H](C)CO)=C3O)C(C)(C)CCC2 | 62.8
CC[C@@]1(O)C(=O)OCc2c1cc1n(c2=O)Cc2c-1nc1ccccc1c2/C=N\NC(=O)C[n+]1ccccc1 | > 43.5
Cc1[nH]c(=O)[nH]c(=O)c1/C=C/C(=O)NC(CO)CC(C)C (configuration not stated) | > 375
CN(C)CCn1c(=O)c2ccc(NCCNCCO)c3c(=O)c4ccccc4n(c1=O)c23 | 0.34
CN(CCC(=O)N1CC(CCl)c2ccc([N+](=O)[O-])cc21)CCC(=O)N1CC(CCl)c2ccc([N+](=O)[O-])cc21 (configuration not stated) | 21.7
O=C1CC(Br)c2c(Br)sc(Br)c21 (configuration not stated) | 24.4
[O-][n+]1nc(N2CCOCC2)nc2ccccc21 | > 100
N=C1C(=N)c2ccccc2-c2ccccc21.[Cl-].[Ru+2].c1cnc2c(c1)ccc1cccnc12.c1cnc2c(c1)ccc1cccnc12 | 54.7
NCc1ccc(-c2ccc(CN)s2)s1 | > 100
CCC1CN2CCc3cc(OC)c(OC)cc3C2CC1CC1c2cc(OC)c(OC)cc2CCN1C(=O)C(N)Cc1ccccc1 (configuration not stated) | 1.73
CC(=O)OC1C=C(C=O)C(O)(C=O)C2(C)CCCC(C)(C)C12 (configuration not stated) | 1.16
C1C2CC3CC1CC(c1nn4c(C56CC7CC(CC(C7)C5)C6)nnc4s1)(C2)C3 | > 100
O=[N+]([O-])/C(C(Cl)=C(Cl)Cl)=C1\Nc2ccc([N+](=O)[O-])cc2N1 | 63
CC(C)=CCc1c(O)cc(O)c2c1OC(c1ccc(O)cc1)C(O)C2=O (configuration not stated) | 42
Cc1ccc(-c2c(C#N)c(-c3ccccc3)n(NS(=O)(=O)c3ccc(C)cc3)c(=O)c2C#N)cc1 | > 100
CCCCCCCCCCCCCCCCP(=O)(O)OCC(N)C(=O)O (configuration not stated) | 42.8
OC1=C2c3ccccc3NC2Oc2cc(F)ccc21 (configuration not stated) | 52.8
NCC(Cl)C(O)c1cnc(N)[nH]1 (configuration not stated) | 7.1

What follows are compounds tested on RXF 393 renal (assay: NCI-60 cell line screen, 48 h).

SMILES | TGI [µM]
CCOc1cccc(C=Nc2ccccc2SSc2ccccc2N=Cc2cccc(OCC)c2O)c1O | 34.9
Cc1c2c(cc3c1C(=O)C(=O)C([C@@H](C)CO)=C3O)C(C)(C)CCC2 | 92.3
CC[C@@]1(O)C(=O)OCc2c1cc1n(c2=O)Cc2c-1nc1ccccc1c2/C=N\NC(=O)C[n+]1ccccc1 | 2.79
Cc1[nH]c(=O)[nH]c(=O)c1/C=C/C(=O)NC(CO)CC(C)C (configuration not stated) | > 375
COc1ccc(CC2Cc3ccccc3CCN2)cc1OC (configuration not stated) | > 50
O=C1CC(Br)c2c(Br)sc(Br)c21 (configuration not stated) | 32.9
[O-][n+]1nc(N2CCOCC2)nc2ccccc21 | > 100
COc1ccc(NC(=S)Nc2cc(C)ccn2)cc1 | > 100
N=C1C(=N)c2ccccc2-c2ccccc21.[Cl-].[Ru+2].c1cnc2c(c1)ccc1cccnc12.c1cnc2c(c1)ccc1cccnc12 | > 100
NCc1ccc(-c2ccc(CN)s2)s1 | > 100
CCC1CN2CCc3cc(OC)c(OC)cc3C2CC1CC1c2cc(OC)c(OC)cc2CCN1C(=O)C(N)Cc1ccccc1 (configuration not stated) | 4.37
CC(=O)OC1C=C(C=O)C(O)(C=O)C2(C)CCCC(C)(C)C12 (configuration not stated) | 1.01
C1C2CC3CC1CC(c1nn4c(C56CC7CC(CC(C7)C5)C6)nnc4s1)(C2)C3 | > 100

From PubChem BioAssay (NCI)
